The results in this text go back to doi:10.1101/2023.11.09.566481v1 (biorxiv, 2023).

Each structure is given as a SMILES string. Read-outs that look alike come from different tables or passages of the source.

The target in experiment [1] is T1, hSirt3^102-399 (Homo sapiens, UniProt Q9NTG7).
T1 sequence (Q9NTG7 102-399): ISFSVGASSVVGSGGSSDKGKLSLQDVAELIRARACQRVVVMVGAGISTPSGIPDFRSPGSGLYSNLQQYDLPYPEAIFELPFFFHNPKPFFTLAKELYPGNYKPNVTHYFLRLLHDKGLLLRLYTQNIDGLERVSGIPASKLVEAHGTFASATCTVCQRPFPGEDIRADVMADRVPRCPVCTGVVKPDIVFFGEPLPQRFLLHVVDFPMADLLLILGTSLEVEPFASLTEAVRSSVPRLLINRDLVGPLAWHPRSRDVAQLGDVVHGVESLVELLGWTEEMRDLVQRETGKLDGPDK
In words: biochemical. The settings on record: read-out: % Control Non-Steady state.

In experiment [2] the target is T1, hSirt3^102-399. The experiment in a line: biochemical. The settings on record: read-out: % Control Steady-state.

`C=CCc1ccc(O)c(-c2ccc(O)c(CC=C)c2)c1` [Honokiol]: the remaining activity at 10 µM at hSirt3^102-399 [1] stood at 110%; on hSirt3^102-399 [2], 85.9%.
